Test results published in ChEMBL document CHEMBL3046073, “Synthesis and cytotoxicity of novel 6H-indolo[2,3-b]quinoxaline derivatives” (2013).

Tests used:
Assay type in all cases: functional
A549 = experiment: Cytotoxicity against Homo sapiens (human) A549 cells assessed as cell viability at 10 uM after 72 hr by MTT assay; settings: A549, 72 h, read-out: Activity
DU-145 = experiment: Cytotoxicity against Homo sapiens (human) DU145 cells assessed as cell viability at 10 uM after 72 hr by MTT assay; settings: DU-145, 72 h, read-out: Activity
HeLa = experiment: Cytotoxicity against Homo sapiens (human) HeLa cells assessed as cell viability at 10 uM after 72 hr by MTT assay; settings: read-out: Activity

Clc1cccc(-n2cc(Cn3c4ccccc4c4nc5ccccc5nc43)nn2)c1
viability at 10 µM (A549): 104% | viability at 10 µM (DU-145): 77.5% | viability at 10 µM (HeLa): 77.5%

Fc1ccc(-n2cc(Cn3c4ccccc4c4nc5ccccc5nc43)nn2)cc1
viability at 10 µM (A549): 94.7% | viability at 10 µM (DU-145): 83.2% | viability at 10 µM (HeLa): 77.4%

FC(F)(F)c1cccc(-n2cc(Cn3c4ccccc4c4nc5ccccc5nc43)nn2)c1
viability at 10 µM (A549): 83.4% | viability at 10 µM (DU-145): 76.5% | viability at 10 µM (HeLa): 76.9%

Brc1ccccc1-n1cc(Cn2c3ccccc3c3nc4ccccc4nc32)nn1
viability at 10 µM (A549): 85.5% | viability at 10 µM (DU-145): 85.4% | viability at 10 µM (HeLa): 75.6%

Fc1ccc(-n2cc(Cn3c4ccccc4c4nc5ccccc5nc43)nn2)c(F)c1
viability at 10 µM (A549): 94.7% | viability at 10 µM (DU-145): 77.4% | viability at 10 µM (HeLa): 80.7%

Fc1cc(-n2cc(Cn3c4ccccc4c4nc5ccccc5nc43)nn2)ccc1Cl
viability at 10 µM (A549): 83.5% | viability at 10 µM (DU-145): 76.1% | viability at 10 µM (HeLa): 93.6%

Fc1ccc(COc2cccc(-n3cc(Cn4c5ccccc5c5nc6ccccc6nc54)nn3)c2)cc1
viability at 10 µM (A549): 98.3% | viability at 10 µM (DU-145): 77.6% | viability at 10 µM (HeLa): 81.5%

Fc1ccc2c(c1)c1nc3ccccc3nc1n2Cc1cn(-c2ccccc2)nn1
viability at 10 µM (A549): 97.8% | viability at 10 µM (DU-145): 72.6% | viability at 10 µM (HeLa): 92%

Fc1ccc2c(c1)c1nc3ccccc3nc1n2Cc1cn(-c2cccc(Cl)c2)nn1
viability at 10 µM (A549): 91.9% | viability at 10 µM (DU-145): 73.2% | viability at 10 µM (HeLa): 77.7%

Fc1ccc(-n2cc(Cn3c4ccc(F)cc4c4nc5ccccc5nc43)nn2)cc1
viability at 10 µM (A549): 97.1% | viability at 10 µM (DU-145): 85% | viability at 10 µM (HeLa): 91.9%

Fc1ccc2c(c1)c1nc3ccccc3nc1n2Cc1cn(-c2cccc(C(F)(F)F)c2)nn1
viability at 10 µM (A549): 93.7% | viability at 10 µM (DU-145): 77.5% | viability at 10 µM (HeLa): 86.4%

Fc1ccc2c(c1)c1nc3ccccc3nc1n2Cc1cn(-c2ccccc2Br)nn1
viability at 10 µM (A549): 94.7% | viability at 10 µM (DU-145): 90.1% | viability at 10 µM (HeLa): 89.4%

Fc1ccc(-n2cc(Cn3c4ccc(F)cc4c4nc5ccccc5nc43)nn2)c(F)c1
viability at 10 µM (A549): 87.9% | viability at 10 µM (DU-145): 77.3% | viability at 10 µM (HeLa): 86.8%

COc1cccc2c1C(=O)c1c(O)c3c(c(O)c1C2=O)C[C@@](O)(C(=O)CO)C[C@@H]3O[C@H]1C[C@H](N)[C@H](O)[C@H](C)O1 [DOXORUBICIN]
viability at 10 µM (A549): 6.33% | viability at 10 µM (DU-145): 9% | viability at 10 µM (HeLa): 12%
